# Source: US8507219B2, “Method of treating inflammation with statins” (MUSC Foundation for Research Development, priority 1997, dated 2013)
# “And” between values parts separate entries of the source, which are not always exact repeats. Identical values can stand only once. Like-named read-outs stand apart in the source and are kept apart here.
# Assays:
# [1] = test system: TNF-α production in rat primary astrocytes; assay: LPS-induced TNF-α production (ELISA) in rat primary astrocytes; type: cell-based
# Experimental: (§1) Determination of TNF-α and IL-1β in culture supernatants Cells were stimulated with LPS in serum-free media for 24 h in the presence or absence of forskolin or rolipram, and concentrations of TNF-α and IL-1β were measured in culture supernatants by using high-sensitivity enzyme-linked immunosorbent assay (R&D Systems, USA) according to the manufacturer's instructions.
# [2] = test system: IL-1β production in rat primary astrocytes; assay: LPS-induced IL-1β production (ELISA) in rat primary astrocytes; type: cell-based
# Experimental: as §1
# [3] = test system: IL-6 production in rat primary astrocytes; assay: LPS-induced IL-6 production (ELISA) in rat primary astrocytes; type: cell-based
# [4] = test system: IL-1β production in rat primary microglia; assay: LPS-induced IL-1β production (ELISA) in rat primary microglia; type: cell-based
# Experimental: as §1
# [5] = test system: IL-6 production in rat macrophages; assay: LPS-induced IL-6 production (ELISA) in rat macrophages; type: cell-based
# [6] = test system: control human skin fibroblasts; assay: β-oxidation of lignoceric acid in control human skin fibroblasts; type: cell-based
# [7] = test system: cultured skin fibroblasts of X-ALD; assay: β-oxidation of lignoceric acid in cultured skin fibroblasts of X-ALD; type: cell-based, human
# iNOS = assay: Expression of iNOS protein (immunoblot) and mRNA (Northern) in rat primary astrocytes; type: cell-based
# How it was run: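 Cells incubated 24 h with or without stimuli (cytokines or LPS). iNOS protein detected by immunoblot with anti-mouse macrophage iNOS antibody and [^125I]-protein A. Northern blot: 20 μg total RNA hybridised at 68° C with ^32P-cDNA probe; iNOS mRNA quantified densitometrically relative to GAPDH rehybridisation.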
# iNOS gene = iNOS gene transcription (nuclear run-on assay) in rat primary astrocytes; type: cell-based
# Experimental: […]. In brief, the filters were prehybridized in 1 ml of hybridization buffer (50% formamide, 5×SSC, 1% SDS, 15% dextran sulfate, 1×Denhardt's solution, and 50 μg/ml heparin). After 24 h of prehybridization in the above buffer, hybridization was carried out with the labeled RNAs (1.3×10^5 cpm) at 42° C. for 60 h to 3 μg of the immobilized plasmid pGEM-T as a control, or to plasmids containing inserts of rat glyceraldehyde-3-phosphate dehydrogenase, rat actin, and human iNOS cDNAs. The filters were washed twice in 2×SSC, 0.1% SDS for 15 min at […], and twice in 0.5×SSC, 0.1% SDS for 15 min. Then the filters were treated with RNase buffer (300 mM NaCl, 10 mM TrisHCI, pH 7.4, 40 mM EDTA, 10 μg/ml RNase A, and 350 U/ml RNase T1) at 37° C. for 30 min, in the same buffer without RNases for another 30 min, and were then autoradiographed.
# [8] = Astrocytes, 10 μM lovastatin or 5 mM NaPA 8 h, then LPS 1.0 μg/ml, 24 h
compound,measurement,setting,value
CC[C@H](C)C(=O)O[C@H]1C[C@@H](C)C=C2C=C[C@H](C)[C@H](CC[C@@H]3C[C@@H](O)CC(=O)O3)[C@H]21 [Lovastatin],Production of TNF-α,[1]; [8],0.3 ± 0.05 ng/24 h/mg protein
same,Production of IL-1β,[2]; [8],0.8 ± 0.1 ng/24 h/mg protein
same,Production of IL-6,[3]; [8],6.9 ± 0.9 ng/24 h/mg protein
same,Production of IL-1β,"[4]; Microglia, 10 μM lovastatin or 5 mM NaPA 8 h, then LPS 1.0 μg/ml, 24 h",2.1 ± 0.3 ng/24 h/mg protein
same,Production of IL-6,"[5]; Macrophages, 10 μM lovastatin or 5 mM NaPA 8 h, then LPS 1.0 μg/ml, 24 h",8.3 ± 0.6 ng/24 h/mg protein
same,Lignoceric acid β-oxidation,"[6]; 72 h, Lovastatin 5 μM, Mevastatin 5 μM, NaPA 5 mM, Control 570.2 ± 52.3",945.7 ± 105.6 pmol/h/mg protein
same,stimulation of lignoceric acid β-oxidation,"[7]; 72 h, lovastatin 5 μM, NaPA 5 mM (highest doses found to stimulate)",70%
same,Lignoceric acid β-oxidation,"[7]; ALDS2, 15 days, 5 μM lovastatin, 5 mM NaPA or the combination of 2 μM lovastatin and 2 mM NaPA, Control 142.7 ± 15.7",223.5 ± 24.1 pmol/h/mg protein
same,Lignoceric acid β-oxidation,"[7]; ALDS2, 15 days, 5 μM lovastatin, 5 mM NaPA or the combination of 4 μM forskolin and 2 mM NaPA, Control 142.7 ± 15.7",223.5 ± 24.1 pmol/h/mg protein
same,Lignoceric acid β-oxidation,"[7]; ALDS3, 15 days, 5 μM lovastatin, 5 mM NaPA or the combination of 2 μM lovastatin and 2 mM NaPA, Control 122.3 ± 11.7",201.3 ± 22.3 pmol/h/mg protein
same,Lignoceric acid β-oxidation,"[7]; ALDS3, 15 days, 5 μM lovastatin, 5 mM NaPA or the combination of 4 μM forskolin and 2 mM NaPA, Control 122.3 ± 11.7",201.3 ± 22.3 pmol/h/mg protein
same,Lignoceric acid β-oxidation,"[7]; ALDS4, 15 days, 5 μM lovastatin, 5 mM NaPA or the combination of 2 μM lovastatin and 2 mM NaPA, Control 118.5 ± 12.6",192.8 ± 20.5 pmol/h/mg protein
same,Lignoceric acid β-oxidation,"[7]; ALDS4, 15 days, 5 μM lovastatin, 5 mM NaPA or the combination of 4 μM forskolin and 2 mM NaPA, Control 118.5 ± 12.6",192.8 ± 20.5 pmol/h/mg protein
same,Lignoceric acid β-oxidation,"[7]; ALDS5, 15 days, 5 μM lovastatin, 5 mM NaPA or the combination of 2 μM lovastatin and 2 mM NaPA, Control 154.2 ± 14.2",248.2 ± 26.2 pmol/h/mg protein
same,Lignoceric acid β-oxidation,"[7]; ALDS5, 15 days, 5 μM lovastatin, 5 mM NaPA or the combination of 4 μM forskolin and 2 mM NaPA, Control 154.2 ± 14.2",248.2 ± 26.2 pmol/h/mg protein
same,Lignoceric acid β-oxidation,"[7]; ALDS6, 15 days, 5 μM lovastatin, 5 mM NaPA or the combination of 2 μM lovastatin and 2 mM NaPA, Control 132.4 ± 15.9",218.3 ± 19.8 pmol/h/mg protein
same,Lignoceric acid β-oxidation,"[7]; ALDS6, 15 days, 5 μM lovastatin, 5 mM NaPA or the combination of 4 μM forskolin and 2 mM NaPA, Control 132.4 ± 15.9",218.3 ± 19.8 pmol/h/mg protein
same,LPS-mediated induction of iNOS protein and mRNA,iNOS; LPS 1.0 μg/ml,significantly inhibited the LPS-mediated induction of iNOS protein and mRNA
same,LPS-induced nuclear transcription of the iNOS gene,"iNOS gene; 10 μM lovastatin, 5 mM NaPA or 2 μM lovastatin and 2 mM NaPA 8 h, LPS 1.0 μg/ml 4 h",inhibited the relative rate of LPS-induced nuclear transcription of the iNOS gene
"O=C([O-])Cc1ccccc1.[Na+] [NaPA, sodium salt of phenylacetic acid]",Production of TNF-α,[1],0.4 ± 0.06 ng/24 h/mg protein
same,Production of IL-1β,[2],1.1 ± 0.2 ng/24 h/mg protein
same,Production of IL-6,[3],7.6 ± 0.8 ng/24 h/mg protein
same,Production of IL-1β,[4],2.4 ± 0.2 ng/24 h/mg protein
same,Production of IL-6,[5],10.2 ± 1.4 ng/24 h/mg protein
same,Lignoceric acid β-oxidation,[6],826.2 ± 87.2 pmol/h/mg protein
same,Lignoceric acid β-oxidation,[7],211.5 ± 22.6 pmol/h/mg protein and 189.7 ± 21.2 pmol/h/mg protein and 183.2 ± 17.3 pmol/h/mg protein and 178.9 ± 18.3 pmol/h/mg protein and 202.5 ± 17.4 pmol/h/mg protein
same,stimulation of lignoceric acid β-oxidation,[7],40%
same,LPS-mediated induction of iNOS protein and mRNA,iNOS,significantly inhibited the LPS-mediated induction of iNOS protein and mRNA
same,LPS-induced nuclear transcription of the iNOS gene,iNOS gene,inhibited the relative rate of LPS-induced nuclear transcription of the iNOS gene
